The values that follow come from paper PMC4849045, “Hepatoprotective Limonoids from Andiroba (Carapa guianensis)” (International Journal of Molecular Sciences, 2016).

Read-outs that look alike come from different tables or passages of the source.

The test system of data set [1] is D-GalN/LPS-induced liver injury in mice. Description: D-GalN/LPS-induced liver injury in mice. It counts as in vivo, mouse. To be noted: p.o.; for Mortality: dead/total; for sALT / sAST: mean ± S.E.M. As to the method: Male ddY mice (Kiwa Laboratory Animal Co., Ltd., Wakayama, Japan) were housed at a constant temperature of 23 ± 2°C and were fed a standard laboratory chow (MF, Oriental Yeast Co., Ltd., Tokyo, Japan). The animals were fasted for 24 h prior to the beginning of the experiment but were allowed free access to tap water. All experiments were performed with conscious mice unless otherwise noted. The experimental protocol was approved by the Experimental Animal Research Committee of Kindai University (KAPR-26-001, 1 April 2014).
The method described by Tiegs et al. was modified and used for this study. Curcumin [36] and silybin were used as reference compounds.

Data set [2] concerns L929 cells. Nature of the data set: TNF-α-induced cytotoxicity in L929 cells (MTT assay). It counts as cell-based. As to conditions: Mus musculus; for inhibition at 1 µM / inhibition at 3 µM / inhibition at 10 µM / inhibition at 30 µM: read-out: Inhibition (%) of TNF-α-induced cytotoxicity. Here is the method:
The effects of the limonoids (1–17) on the sensitivity of hepatocytes to TNF-α were assessed by measuring TNF-α-induced decreases in the viability of L929 cells, a TNF-α-sensitive cell line, by using the MTT assay. In the absence of a test sample, the cells incubated with 1 ng/mL TNF-α for 44 h were compared with those not incubated with TNF-α.
Assay for the TNF-α-induced cytotoxicity in L929 cells was performed as described previously. Silybin was used as a reference compound [36].

Data set [3] has as its system LPS-activated NO production in mouse peritoneal macrophages. To be noted: cited from earlier work; for Inhibition (%) of LPS-activated NO production: mean ± S.E.M. (n = 4); for IC50: mouse peritoneal macrophages, read-out: IC50, inhibition of LPS-activated NO production.
Data set [4] has as its system mouse peritoneal macrophages. As to conditions: mean ± S.E.M. (n = 4), cited from earlier work.
In data set [5] the test system is primary cultured mouse hepatocytes. Description: D-GalN-induced cytotoxicity in primary cultured mouse hepatocytes (MTT assay). To be noted: Hepatocyte, read-out: Inhibition (%) of D-GalN-induced cytotoxicity.
Description: Assay for the D-GalN-induced cytotoxicity in primary cultured mouse hepatocytes was performed as described previously [33, 35, 36].
Data set [6] has as its system D-GalN/LPS-induced liver injury in mice. On the set-up: method as in PMID 24697904. As to conditions: p.o., cited from earlier work; for Mortality: dead/total; for sALT / sAST: mean ± S.E.M.
Data set [7] has as its system primary cultured mouse hepatocytes. To be noted: cited from earlier work; for Inhibition (%) of D-GalN-induced cytotoxicity: mean ± S.E.M. (n = 4).
For data set [8], the system named is L929 cells. Also on record: method as in PMID 24697904. As to conditions: cited from earlier work; for Inhibition (%) of TNF-α-induced cytotoxicity: mean ± S.E.M. (n = 4).
The mark [9] stands for this setting: L929, 1 µM, 1 ng/mL TNF-α, 44 h, mean ± S.E.M. (n = 4).
Where [10] appears, read: L929, 3 µM, 1 ng/mL TNF-α, 44 h, mean ± S.E.M. (n = 4).
The mark [11] stands for this setting: L929, 10 µM, 1 ng/mL TNF-α, 44 h, mean ± S.E.M. (n = 4).
Setting [12] is: L929, 30 µM, 1 ng/mL TNF-α, 44 h, mean ± S.E.M. (n = 4).
Where [13] appears, read: 100 µM, # = cytotoxic effects were observed.

With `CC(=O)O[C@@H]1C[C@H]2C(C)(C)C(=O)C=C[C@]2(C)[C@H]2CC[C@@]3(C)[C@H](c4ccoc4)OC(=O)[C@H]4O[C@]43[C@@]21C` [compound 1, gedunin], the “sALT Inhibition (%)” value in data set [1] (25 mg/kg) was 65.7%; in data set [1] (50 mg/kg), 67.2%. For the same molecule, the “sAST Inhibition (%)” value in data set [1] (25 mg/kg) came to 56.2%; in data set [1] (50 mg/kg), 63.5%. The Mortality in data set [1] (25 mg/kg) and in data set [1] (50 mg/kg) was 0/7 in each case. Further, the sALT in data set [1] (25 mg/kg) came to 2950 ± 710 Karmen Unit; in data set [1] (50 mg/kg), 2824 ± 754 Karmen Unit. The figures for the sAST in data set [1] (25 mg/kg) and in data set [1] (50 mg/kg) were 2304 ± 651 Karmen Unit and 1923 ± 576 Karmen Unit, respectively. Further, in data set [2] (setting [9]), the inhibition at 1 µM was determined as 4.5 ± 1.9%. The inhibition at 3 µM was 21.8 ± 3.7% in data set [2] (setting [10]) and -8.4 ± 1.9% in data set [5]. For the same molecule, the values for the inhibition at 10 µM in data set [2] (setting [11]) and in data set [5] were 38.1 ± 3.8% and -3.9 ± 0.4%, respectively. In addition, the inhibition at 30 µM in data set [2] (setting [12]) is 36.5 ± 4.1%; in data set [5], -3.2 ± 0.9%. Further, the “Inhibition (%) of LPS-activated NO production” value in data set [3] (3 µM) is reported as 25.1 ± 2.5%; in data set [3] (10 µM), 84.5 ± 2.3%; in data set [3] (30 µM), 101.8 ± 0.6%; in data set [3] (100 µM) it was 100.9 ± 0.4%. Moreover, the concentration for half-maximal inhibition (IC50) in data set [3] is 4.6 µM. Also, the “cell viability (%) in MTT assay (values in parentheses)” value (“cell viability (%) in MTT assay” below) in data set [4] (3 µM) was 102.2 ± 5.3%; in data set [4] (10 µM), 119.5 ± 5.3%; in data set [4] (30 µM) it was 94.8 ± 1.4%; in data set [4] (setting [13]), 3.0 ± 0.4%. The inhibition at 100 µM in data set [5] is -5.2 ± 0.2%.
With `COc1cc(/C=C/C(=O)CC(=O)/C=C/c2ccc(O)c(OC)c2)ccc1O` [Curcumin, curcumin], the results for the “sALT Inhibition (%)” value in data set [6] (12.5 mg/kg), in data set [6] (25 mg/kg) and in data set [6] (50 mg/kg) were 24.0%, 50.9% and 71.2%, respectively. In addition, the figures for the “sAST Inhibition (%)” value in data set [6] (12.5 mg/kg), in data set [6] (25 mg/kg) and in data set [6] (50 mg/kg) were 21.1%, 47.8% and 63.8%, respectively. For the same molecule, the Mortality is listed as 0/10 in data set [6] (12.5 mg/kg), 0/10 in data set [6] (25 mg/kg) and 1/10 in data set [6] (50 mg/kg). The sALT in data set [6] (12.5 mg/kg) is reported as 5024 ± 1189 Karmen Unit; in data set [6] (25 mg/kg) it was 3253 ± 981 Karmen Unit; in data set [6] (50 mg/kg) it was 1916 ± 483 Karmen Unit. Moreover, the sAST is 4770 ± 1218 Karmen Unit in data set [6] (12.5 mg/kg), 3177 ± 979 Karmen Unit in data set [6] (25 mg/kg) and 2220 ± 563 Karmen Unit in data set [6] (50 mg/kg). The “Inhibition (%) of D-GalN-induced cytotoxicity” value is recorded as 0.1 ± 3.8% in data set [7] (3 µM), 1.1 ± 2.2% in data set [7] (10 µM), −17.7 ± 1.3% in data set [7] (30 µM) and −44.3 ± 0.3% in data set [7] (100 µM). The “Reduction of D-GalN-induced cytotoxicity (in words)” value in data set [7] (concentrations of up to 100 μM) is recorded as “did not reduce D-GalN-induced cytotoxicity”.
As for `CC1(C)C(=O)C=C[C@@]2(C)C1CC(=O)[C@]1(C)C2CC[C@@]2(C)[C@H](c3ccoc3)OC(=O)[C@H]3O[C@]321` (stereo partly drawn) [compound 3, 7-deacetoxy-7-oxogedunin], the “sALT Inhibition (%)” value in data set [1] (25 mg/kg) is given as 66.3%; in data set [1] (50 mg/kg), 70.2%. The “sAST Inhibition (%)” value in data set [1] (25 mg/kg) turned out to be 60.3%; in data set [1] (50 mg/kg), 66.7%. In addition, the results for the Mortality in data set [1] (25 mg/kg) and in data set [1] (50 mg/kg) were 0/7 and 1/7, respectively. Moreover, the sALT is recorded as 2899 ± 1024 Karmen Unit in data set [1] (25 mg/kg) and 2572 ± 903 Karmen Unit in data set [1] (50 mg/kg). Further, the sAST in data set [1] (25 mg/kg) is 2093 ± 742 Karmen Unit; in data set [1] (50 mg/kg), 1759 ± 579 Karmen Unit. In addition, the IC50 was 7.3 µM in data set [2] (L929, 44 h, read-out: IC50, inhibition of TNF-α-induced decrease in cell viability) and 12.8 µM in data set [3]. Also, the inhibition at 1 µM in data set [2] (L929, 44 h) is 5.8 ± 1.5%. Moreover, the inhibition at 3 µM in data set [2] (L929, 44 h) was 26.7 ± 4.5%; in data set [5], -4.6 ± 0.5%. The inhibition at 10 µM in data set [2] (L929, 44 h) was 58.6 ± 7.2%; in data set [5] it was -8.2 ± 0.9%. Also, the inhibition at 30 µM is 68.7 ± 4.8% in data set [2] (L929, 44 h) and -8.3 ± 1.1% in data set [5]. Moreover, the “Inhibition (%) of LPS-activated NO production” value in data set [3] (3 µM) is on record as 7.4 ± 5.2%; in data set [3] (10 µM) it was 40.9 ± 4.7%; in data set [3] (30 µM), 94.0 ± 0.8%; in data set [3] (100 µM), 88.1 ± 2.1%. Moreover, the “cell viability (%) in MTT assay” value in data set [4] (3 µM) is 100.3 ± 3.9%; in data set [4] (10 µM), 98.9 ± 3.2%; in data set [4] (30 µM) it was 98.8 ± 7.4%; in data set [4] (setting [13]) it was 83.7 ± 1.2%. Besides, the inhibition at 100 µM in data set [5] is -8.9 ± 0.6%.
Turning to `CC(=O)O[C@@H]1C2C(C)(C)C(=O)C=C[C@]2(C)C2CC[C@@]3(C)[C@H](c4ccoc4)OC(=O)[C@H]4O[C@]43[C@]2(C)[C@@H]1OC(C)=O` (stereo partly drawn) [compound 2, 6α-acetoxygedunin], the “sALT Inhibition (%)” value in data set [1] (25 mg/kg) is on record as 63.7%; in data set [1] (50 mg/kg) it was 72.2%. Besides, the “sAST Inhibition (%)” value is 54.7% in data set [1] (25 mg/kg) and 67.9% in data set [1] (50 mg/kg). In addition, the Mortality in data set [1] (25 mg/kg) and in data set [1] (50 mg/kg) was 0/7 throughout. Besides, the sALT in data set [1] (25 mg/kg) worked out at 3120 ± 830 Karmen Unit; in data set [1] (50 mg/kg), 2397 ± 873 Karmen Unit. In addition, the sAST is 2384 ± 579 Karmen Unit in data set [1] (25 mg/kg) and 1696 ± 580 Karmen Unit in data set [1] (50 mg/kg). Besides, the inhibition at 1 µM in data set [2] (setting [9]) worked out at 10.9 ± 1%. Moreover, the inhibition at 3 µM was 23.2 ± 1.8% in data set [2] (setting [10]) and -2.6 ± 1% in data set [5]. The figures for the inhibition at 10 µM in data set [2] (setting [11]) and in data set [5] were 36.3 ± 2.1% and -1.9 ± 0.3%, respectively. The inhibition at 30 µM in data set [2] (setting [12]) was 37.3 ± 1.4%; in data set [5], -2.5 ± 0.7%. In addition, the “Inhibition (%) of LPS-activated NO production” value is on record as 16.9 ± 1.7% in data set [3] (3 µM), 67.6 ± 4.6% in data set [3] (10 µM), 88.4 ± 3.5% in data set [3] (30 µM) and 99.6 ± 0.2% in data set [3] (100 µM). In data set [3], the IC50 is 7.9 µM. In addition, the “cell viability (%) in MTT assay” value in data set [4] (3 µM) is given as 96.8 ± 1.2%; in data set [4] (10 µM), 102.3 ± 2.2%; in data set [4] (30 µM) it was 92.5 ± 1.7%; in data set [4] (setting [13]) it was 53.6 ± 5.1%. The inhibition at 100 µM in data set [5] was -1.8 ± 0.6%.
Consider `COc1cc(C2Oc3cc([C@H]4Oc5cc(O)cc(O)c5C(=O)[C@@H]4O)ccc3OC2CO)ccc1O` (stereo partly drawn) [Silybin, silybin], for which the “sALT Inhibition (%)” value in data set [1] (500 mg/kg) turned out to be 71.9%. In addition, in data set [1] (500 mg/kg), the “sAST Inhibition (%)” value stood at 71.1%. Also, the Mortality in data set [1] (500 mg/kg) is 0/8. Moreover, the sALT in data set [1] (500 mg/kg) amounted to 1990 ± 439 Karmen Unit. This molecule also displayed a sAST in data set [1] (500 mg/kg) of 1361 ± 191 Karmen Unit. Moreover, the “Inhibition (%) of D-GalN-induced cytotoxicity” value in data set [7] (3 µM) is 4.8 ± 1.1%; in data set [7] (10 µM) it was 7.7 ± 0.7%; in data set [7] (30 µM) it was 45.2 ± 8.8 %; in data set [7] (100 µM), 77.0 ± 5.5 %. For the same molecule, the IC50 is 38.8 µM in data set [7] (primary mouse hepatocytes, read-out: IC50, inhibition of D-GalN-induced cytotoxicity) and 37.2 µM in data set [8] (L929 cells, read-out: IC50, inhibition of TNF-α-induced decrease in cell viability). For the same molecule, the “Inhibition (%) of TNF-α-induced cytotoxicity” value is listed as 5.3 ± 2.8% in data set [8] (3 µM), 22.0 ± 3.8 % in data set [8] (10 µM), 48.0 ± 4.1 % in data set [8] (30 µM) and 50.8 ± 3.9 % in data set [8] (100 µM).
